{"source": "patent US6153738A", "about": "(priority 1999, dated 2000)", "origin": "cited, not measured here", "system": "Swiss Webster mice", "details": "mouse, in vivo", "data": [{"substance": "GCX1 X2 EPWC [contryphan-R]", "values": [{"measurement": "symptomatology after intracranial injection into mice", "value": "stiff-tail syndrome"}]}]}
